# Measurements reported in paper PMC5762315, “Inhibition of polo-like kinase 4 (PLK4): a new therapeutic option for rhabdoid tumors and pediatric medulloblastoma” (Oncotarget, 2017).
# Several values for one entry are separate records, joined by “and”; a condition that tells them apart may be missing. Equal entries are not always repeated.
# Legend:
# Assay in all cases: biochemical
# Assay type in all cases: biochemical
# various kinases [1] = biological target: various kinases (Homo sapiens, UniProt O43293); conditions: DAPK3 (ZIPK)
# various kinases [2] = biological target: various kinases (Homo sapiens, UniProt P07947); conditions: kinase YES1; ZLYTE
# various kinases (Homo sapiens, UniProt P07947), sequence (P07947 whole entry): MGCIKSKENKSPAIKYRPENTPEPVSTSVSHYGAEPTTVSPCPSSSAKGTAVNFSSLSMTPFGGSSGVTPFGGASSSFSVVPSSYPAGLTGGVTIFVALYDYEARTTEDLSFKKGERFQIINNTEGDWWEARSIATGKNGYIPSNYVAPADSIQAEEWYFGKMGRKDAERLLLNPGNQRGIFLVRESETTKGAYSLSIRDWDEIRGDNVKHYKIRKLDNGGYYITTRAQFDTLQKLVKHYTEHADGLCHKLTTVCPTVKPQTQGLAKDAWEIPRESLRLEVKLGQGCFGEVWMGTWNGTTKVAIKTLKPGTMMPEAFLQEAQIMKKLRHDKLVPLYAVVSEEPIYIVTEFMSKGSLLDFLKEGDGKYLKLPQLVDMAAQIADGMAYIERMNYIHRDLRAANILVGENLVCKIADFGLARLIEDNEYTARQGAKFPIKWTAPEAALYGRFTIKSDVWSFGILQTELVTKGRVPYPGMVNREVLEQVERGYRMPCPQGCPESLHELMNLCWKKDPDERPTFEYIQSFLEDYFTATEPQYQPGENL
# various kinases [3] = biological target: various kinases (Homo sapiens, UniProt P07949, A883F); conditions: kinase RET A883F; ZLYTE
# various kinases (Homo sapiens, UniProt P07949, A883F), sequence (P07949 29-1114 A883F): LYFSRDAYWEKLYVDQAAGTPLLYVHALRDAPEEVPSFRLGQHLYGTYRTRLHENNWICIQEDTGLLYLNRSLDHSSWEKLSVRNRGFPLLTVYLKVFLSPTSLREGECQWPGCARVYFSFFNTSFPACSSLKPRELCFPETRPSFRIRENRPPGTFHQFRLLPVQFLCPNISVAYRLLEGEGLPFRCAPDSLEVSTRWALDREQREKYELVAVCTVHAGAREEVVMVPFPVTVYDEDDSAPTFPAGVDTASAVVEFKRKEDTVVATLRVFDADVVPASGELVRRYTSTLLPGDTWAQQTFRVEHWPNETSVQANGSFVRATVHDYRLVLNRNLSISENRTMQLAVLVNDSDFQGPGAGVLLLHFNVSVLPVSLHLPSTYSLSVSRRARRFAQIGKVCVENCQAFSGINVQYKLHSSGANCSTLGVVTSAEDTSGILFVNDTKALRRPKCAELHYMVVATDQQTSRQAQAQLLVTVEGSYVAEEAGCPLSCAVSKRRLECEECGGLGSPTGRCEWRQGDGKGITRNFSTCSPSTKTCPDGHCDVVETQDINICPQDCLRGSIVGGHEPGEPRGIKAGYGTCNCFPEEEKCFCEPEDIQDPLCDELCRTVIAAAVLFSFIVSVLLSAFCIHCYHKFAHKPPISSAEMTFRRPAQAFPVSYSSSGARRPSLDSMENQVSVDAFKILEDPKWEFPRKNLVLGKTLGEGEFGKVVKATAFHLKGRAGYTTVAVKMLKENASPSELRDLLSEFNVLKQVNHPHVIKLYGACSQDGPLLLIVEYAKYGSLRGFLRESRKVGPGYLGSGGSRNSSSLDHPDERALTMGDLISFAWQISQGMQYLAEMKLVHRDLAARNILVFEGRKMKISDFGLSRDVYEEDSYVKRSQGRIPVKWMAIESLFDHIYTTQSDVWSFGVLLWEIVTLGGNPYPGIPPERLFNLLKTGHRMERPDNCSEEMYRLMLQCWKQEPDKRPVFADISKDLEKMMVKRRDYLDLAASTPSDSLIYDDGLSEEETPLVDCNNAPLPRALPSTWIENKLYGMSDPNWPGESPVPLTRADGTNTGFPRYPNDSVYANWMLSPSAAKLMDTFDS
# various kinases [4] = biological target: various kinases (Homo sapiens, UniProt P09769); conditions: FGR
# various kinases [5] = biological target: various kinases (Homo sapiens, UniProt P16591); conditions: FER
# various kinases (Homo sapiens, UniProt P16591), sequence (P16591 whole entry): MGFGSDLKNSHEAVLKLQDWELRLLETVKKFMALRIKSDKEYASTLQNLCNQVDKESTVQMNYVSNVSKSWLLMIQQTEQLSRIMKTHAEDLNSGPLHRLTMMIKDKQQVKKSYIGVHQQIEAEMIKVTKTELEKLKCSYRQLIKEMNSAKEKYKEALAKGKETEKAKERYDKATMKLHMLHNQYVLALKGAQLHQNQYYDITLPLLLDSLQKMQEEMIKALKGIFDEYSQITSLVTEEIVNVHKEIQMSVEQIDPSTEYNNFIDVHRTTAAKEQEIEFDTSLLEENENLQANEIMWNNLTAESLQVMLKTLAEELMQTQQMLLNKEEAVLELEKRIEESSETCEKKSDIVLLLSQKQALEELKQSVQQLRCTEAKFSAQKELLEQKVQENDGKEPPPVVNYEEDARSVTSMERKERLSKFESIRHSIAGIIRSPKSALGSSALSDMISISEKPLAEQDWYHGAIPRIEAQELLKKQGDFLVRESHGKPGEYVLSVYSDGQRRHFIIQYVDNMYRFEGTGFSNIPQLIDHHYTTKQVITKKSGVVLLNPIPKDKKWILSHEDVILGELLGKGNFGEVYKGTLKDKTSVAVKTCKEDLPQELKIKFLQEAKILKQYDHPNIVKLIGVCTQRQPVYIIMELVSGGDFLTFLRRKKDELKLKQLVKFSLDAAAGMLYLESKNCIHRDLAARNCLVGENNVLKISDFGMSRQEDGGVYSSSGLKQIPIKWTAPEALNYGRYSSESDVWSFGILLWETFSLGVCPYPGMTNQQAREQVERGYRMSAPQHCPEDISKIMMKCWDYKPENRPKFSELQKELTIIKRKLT
# various kinases [6] = biological target: various kinases (Homo sapiens, UniProt P29317); conditions: EPHA2
# various kinases (Homo sapiens, UniProt P29317), sequence (P29317 24-976): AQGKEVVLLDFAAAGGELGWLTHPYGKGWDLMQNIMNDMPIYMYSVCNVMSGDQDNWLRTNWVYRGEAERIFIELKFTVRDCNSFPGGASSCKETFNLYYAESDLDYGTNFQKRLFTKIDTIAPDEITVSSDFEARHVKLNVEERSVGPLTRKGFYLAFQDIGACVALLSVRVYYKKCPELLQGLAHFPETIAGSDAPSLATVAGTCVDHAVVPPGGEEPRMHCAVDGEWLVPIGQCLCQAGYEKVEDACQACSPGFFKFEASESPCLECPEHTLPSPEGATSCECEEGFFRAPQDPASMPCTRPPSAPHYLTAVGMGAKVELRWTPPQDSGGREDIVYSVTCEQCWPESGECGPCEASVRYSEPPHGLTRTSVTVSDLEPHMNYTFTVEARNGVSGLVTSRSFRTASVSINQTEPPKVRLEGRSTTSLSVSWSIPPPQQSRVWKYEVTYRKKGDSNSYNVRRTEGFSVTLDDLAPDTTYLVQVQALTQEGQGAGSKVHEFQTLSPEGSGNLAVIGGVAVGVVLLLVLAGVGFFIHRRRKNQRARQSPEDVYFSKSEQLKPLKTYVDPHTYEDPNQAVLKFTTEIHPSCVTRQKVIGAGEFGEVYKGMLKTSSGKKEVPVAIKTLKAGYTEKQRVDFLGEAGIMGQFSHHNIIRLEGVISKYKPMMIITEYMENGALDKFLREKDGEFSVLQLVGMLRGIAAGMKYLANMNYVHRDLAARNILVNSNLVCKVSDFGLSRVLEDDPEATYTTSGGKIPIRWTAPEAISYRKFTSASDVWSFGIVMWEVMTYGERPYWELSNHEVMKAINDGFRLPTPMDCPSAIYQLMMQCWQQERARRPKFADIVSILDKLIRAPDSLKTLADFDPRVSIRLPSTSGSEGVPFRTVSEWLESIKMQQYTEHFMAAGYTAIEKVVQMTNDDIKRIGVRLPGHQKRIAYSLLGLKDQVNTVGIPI
# various kinases [7] = biological target: various kinases (Homo sapiens, UniProt P32298); conditions: GRK4
# various kinases [8] = biological target: T1, various kinases (Homo sapiens, UniProt P42681); conditions: kinase TXK; ZLYTE
# T1 sequence (P42681 1-527): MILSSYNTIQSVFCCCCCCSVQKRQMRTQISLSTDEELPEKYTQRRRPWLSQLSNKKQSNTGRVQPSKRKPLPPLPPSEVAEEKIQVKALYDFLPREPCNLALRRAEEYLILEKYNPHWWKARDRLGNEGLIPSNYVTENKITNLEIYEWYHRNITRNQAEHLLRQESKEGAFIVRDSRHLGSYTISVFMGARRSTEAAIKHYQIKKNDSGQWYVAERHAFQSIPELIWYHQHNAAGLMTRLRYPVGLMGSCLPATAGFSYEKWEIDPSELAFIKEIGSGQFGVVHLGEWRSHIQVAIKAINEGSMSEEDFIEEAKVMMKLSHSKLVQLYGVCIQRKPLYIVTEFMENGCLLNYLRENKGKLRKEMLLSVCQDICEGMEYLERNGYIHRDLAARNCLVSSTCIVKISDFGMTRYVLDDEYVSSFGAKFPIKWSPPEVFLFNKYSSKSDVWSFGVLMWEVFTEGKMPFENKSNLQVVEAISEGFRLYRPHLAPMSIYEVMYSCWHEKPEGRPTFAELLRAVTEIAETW
# various kinases [9] = biological target: T2, various kinases (Homo sapiens, UniProt P43403); conditions: kinase ZAP70; ZLYTE
# T2 sequence (P43403 1-619): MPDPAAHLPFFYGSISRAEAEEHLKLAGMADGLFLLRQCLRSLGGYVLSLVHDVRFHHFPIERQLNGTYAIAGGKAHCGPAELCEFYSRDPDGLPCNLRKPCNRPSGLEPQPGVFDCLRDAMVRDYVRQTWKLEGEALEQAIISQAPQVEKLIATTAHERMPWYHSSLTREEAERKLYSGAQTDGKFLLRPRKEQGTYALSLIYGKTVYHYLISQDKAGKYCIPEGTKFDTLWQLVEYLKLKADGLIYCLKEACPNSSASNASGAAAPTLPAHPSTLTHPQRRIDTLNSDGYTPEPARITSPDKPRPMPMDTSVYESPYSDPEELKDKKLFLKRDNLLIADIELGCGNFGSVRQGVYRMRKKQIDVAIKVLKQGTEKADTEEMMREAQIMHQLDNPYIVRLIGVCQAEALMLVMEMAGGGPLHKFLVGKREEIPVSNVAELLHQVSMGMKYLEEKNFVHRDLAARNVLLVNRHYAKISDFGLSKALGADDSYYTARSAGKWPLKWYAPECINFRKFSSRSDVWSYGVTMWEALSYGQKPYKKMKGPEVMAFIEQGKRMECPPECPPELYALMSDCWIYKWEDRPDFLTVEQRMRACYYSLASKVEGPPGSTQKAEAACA
# various kinases [10] = biological target: various kinases (Homo sapiens, UniProt P78362); conditions: kinase SRPK2; ZLYTE
# various kinases (Homo sapiens, UniProt P78362), sequence (P78362 whole entry): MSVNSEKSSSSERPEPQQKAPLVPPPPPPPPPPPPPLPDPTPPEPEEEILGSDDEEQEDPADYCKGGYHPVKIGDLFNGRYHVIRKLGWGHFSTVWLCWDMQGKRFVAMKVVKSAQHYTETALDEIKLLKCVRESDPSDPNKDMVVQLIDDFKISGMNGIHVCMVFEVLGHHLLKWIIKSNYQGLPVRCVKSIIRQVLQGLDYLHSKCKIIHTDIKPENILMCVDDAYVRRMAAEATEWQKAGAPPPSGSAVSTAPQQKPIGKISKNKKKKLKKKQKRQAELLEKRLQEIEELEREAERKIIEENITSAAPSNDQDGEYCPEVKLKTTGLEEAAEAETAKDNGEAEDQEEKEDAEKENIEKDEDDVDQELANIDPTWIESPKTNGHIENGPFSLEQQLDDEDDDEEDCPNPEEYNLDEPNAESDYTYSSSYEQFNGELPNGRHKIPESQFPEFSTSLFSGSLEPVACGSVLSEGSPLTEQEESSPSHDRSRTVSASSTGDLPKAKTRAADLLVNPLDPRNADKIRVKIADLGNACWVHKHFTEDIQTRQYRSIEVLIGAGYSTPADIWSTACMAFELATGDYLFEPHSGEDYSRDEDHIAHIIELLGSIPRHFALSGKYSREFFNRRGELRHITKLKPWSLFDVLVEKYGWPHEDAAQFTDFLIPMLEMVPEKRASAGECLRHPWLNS
# various kinases [11] = biological target: T3, various kinases (Homo sapiens, UniProt Q06418); conditions: kinase TYRO3 (RSE); ZLYTE
# T3 sequence (Q06418 41-890): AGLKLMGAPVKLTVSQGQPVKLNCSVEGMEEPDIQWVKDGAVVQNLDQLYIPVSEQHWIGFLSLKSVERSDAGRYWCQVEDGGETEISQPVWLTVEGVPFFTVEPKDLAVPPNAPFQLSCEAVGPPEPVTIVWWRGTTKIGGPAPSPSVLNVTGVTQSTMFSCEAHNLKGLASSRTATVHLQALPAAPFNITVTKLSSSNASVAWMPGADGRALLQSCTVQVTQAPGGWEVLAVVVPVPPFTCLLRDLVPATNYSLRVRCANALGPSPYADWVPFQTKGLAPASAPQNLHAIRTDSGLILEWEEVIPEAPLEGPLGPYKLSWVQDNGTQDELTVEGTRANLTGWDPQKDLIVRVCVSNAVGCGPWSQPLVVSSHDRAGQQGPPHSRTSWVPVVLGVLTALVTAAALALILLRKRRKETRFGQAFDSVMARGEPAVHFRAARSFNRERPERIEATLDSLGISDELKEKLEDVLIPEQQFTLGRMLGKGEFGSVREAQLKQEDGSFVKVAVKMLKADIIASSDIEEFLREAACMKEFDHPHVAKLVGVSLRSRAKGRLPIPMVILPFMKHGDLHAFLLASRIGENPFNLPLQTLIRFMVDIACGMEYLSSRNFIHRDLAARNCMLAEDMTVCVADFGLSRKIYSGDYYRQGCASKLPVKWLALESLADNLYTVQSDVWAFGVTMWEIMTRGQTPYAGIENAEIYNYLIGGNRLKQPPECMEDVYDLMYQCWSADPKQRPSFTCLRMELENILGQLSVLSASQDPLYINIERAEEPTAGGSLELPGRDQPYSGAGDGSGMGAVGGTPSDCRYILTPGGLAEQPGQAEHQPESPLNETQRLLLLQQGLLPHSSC
# various kinases [12] = biological target: various kinases (Homo sapiens, UniProt Q14680); conditions: MELK
# various kinases (Homo sapiens, UniProt Q14680), sequence (Q14680 whole entry): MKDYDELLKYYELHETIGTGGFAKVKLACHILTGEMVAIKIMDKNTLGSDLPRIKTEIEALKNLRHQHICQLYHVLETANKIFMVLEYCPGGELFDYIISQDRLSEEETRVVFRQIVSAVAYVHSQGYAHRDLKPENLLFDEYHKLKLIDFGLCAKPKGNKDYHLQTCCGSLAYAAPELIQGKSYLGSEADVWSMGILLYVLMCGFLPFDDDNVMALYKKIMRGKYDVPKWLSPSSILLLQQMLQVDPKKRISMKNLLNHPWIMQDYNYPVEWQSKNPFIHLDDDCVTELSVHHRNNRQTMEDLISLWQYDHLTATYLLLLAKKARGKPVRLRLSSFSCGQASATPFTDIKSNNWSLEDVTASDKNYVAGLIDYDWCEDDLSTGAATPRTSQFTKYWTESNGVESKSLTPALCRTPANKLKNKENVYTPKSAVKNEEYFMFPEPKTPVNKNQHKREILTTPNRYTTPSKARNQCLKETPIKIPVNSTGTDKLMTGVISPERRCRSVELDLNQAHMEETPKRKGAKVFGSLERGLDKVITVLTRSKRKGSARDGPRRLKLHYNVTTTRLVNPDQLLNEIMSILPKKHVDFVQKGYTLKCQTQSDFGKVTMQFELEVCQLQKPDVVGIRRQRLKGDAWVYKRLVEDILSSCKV
# Throughout, for % Inhibition Average: test concentration or dose not given here.
# Throughout, for % Inhibition Duplicate #1: test concentration or dose not given here.
# Throughout, for % Inhibition Duplicate #2: test concentration or dose not given here.
structure (smiles),measurement,setting,value
COc1ccc2c(c1)[C@]1(C[C@H]1c1ccc3c(/C=C/c4ccc(CN5C[C@@H](C)O[C@@H](C)C5)cc4)n[nH]c3c1)C(=O)N2 [CFI-400945],% Inhibition,various kinases [1],1% and 2%
same,% Inhibition Average,various kinases [2],17%
same,% Inhibition Duplicate #1,various kinases [2],16%
same,% Inhibition Duplicate #2,various kinases [2],18%
same,% Inhibition Average,various kinases [3],7%
same,% Inhibition Duplicate #1,various kinases [3],9%
same,% Inhibition Duplicate #2,various kinases [3],4%
same,% Inhibition,various kinases [4],28% and 26%
same,% Inhibition,various kinases [5],7% and 11%
same,% Inhibition,various kinases [6],14% and 12%
same,% Inhibition,various kinases [7],1% and -1%
same,% Inhibition Average,various kinases [8],7%
same,% Inhibition Duplicate #1,various kinases [8],6%
same,% Inhibition Duplicate #2,various kinases [8],8%
same,% Inhibition Average,various kinases [9],2%
same,% Inhibition Duplicate #1,various kinases [9],0%
same,% Inhibition Duplicate #2,various kinases [9],4%
same,% Inhibition Average,various kinases [10],7%
same,% Inhibition Duplicate #1,various kinases [10],10%
same,% Inhibition Duplicate #2,various kinases [10],4%
same,% Inhibition Average,various kinases [11],10%
same,% Inhibition Duplicate #1,various kinases [11],10%
same,% Inhibition Duplicate #2,various kinases [11],11%
same,% Inhibition,various kinases [12],9% and 18%
